These results are taken from patent US20130102009A1, “SIRTUIN ACTIVATORS AND ACTIVATION ASSAYS” (priority 2010, published 2013).

Molecules are shown by their SMILES. Values joined by “and” are separate entries in the source; they are usually repeats but may differ in a detail not shown here. Equal values may be shown once. Peptide text beside a SMILES is read from it. * marks the point of attachment. AMC = Cc1cc(=O)oc2cc(N*)ccc12

The EC50 is the concentration needed to bring the measured effect to its halfway point.

Common to all, as to type: biochemical
In test [1] the target is T1, SIRT1 (Homo sapiens, UniProt Q96EB6).
T1 sequence (Q96EB6 1-747): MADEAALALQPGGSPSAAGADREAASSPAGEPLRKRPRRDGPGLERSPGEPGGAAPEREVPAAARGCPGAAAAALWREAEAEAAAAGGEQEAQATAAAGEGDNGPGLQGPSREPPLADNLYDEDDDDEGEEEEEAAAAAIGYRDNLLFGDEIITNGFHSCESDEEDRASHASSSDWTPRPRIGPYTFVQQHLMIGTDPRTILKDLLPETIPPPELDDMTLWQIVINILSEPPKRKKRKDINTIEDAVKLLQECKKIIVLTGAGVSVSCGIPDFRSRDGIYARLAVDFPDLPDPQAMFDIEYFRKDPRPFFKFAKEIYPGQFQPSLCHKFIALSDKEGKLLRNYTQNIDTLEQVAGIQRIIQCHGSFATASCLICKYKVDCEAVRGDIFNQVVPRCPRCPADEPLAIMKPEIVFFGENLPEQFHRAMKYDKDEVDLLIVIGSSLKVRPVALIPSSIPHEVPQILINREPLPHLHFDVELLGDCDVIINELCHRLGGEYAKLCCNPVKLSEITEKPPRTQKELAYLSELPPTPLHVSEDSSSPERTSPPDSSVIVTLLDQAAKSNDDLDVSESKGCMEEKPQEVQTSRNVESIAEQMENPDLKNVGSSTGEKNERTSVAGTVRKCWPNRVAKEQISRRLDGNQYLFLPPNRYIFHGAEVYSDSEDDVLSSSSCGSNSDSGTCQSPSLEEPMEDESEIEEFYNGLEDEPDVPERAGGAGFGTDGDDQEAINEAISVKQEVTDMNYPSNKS
The experiment in a line: Mass spectrometry based SIRT1 activation assay (TAMRA/5TMR-labeled 20mer peptide). Particulars: for Emax: 25 min, percent maximum fold activation of SIRT1, read-out: % FOLD ACT.; for EC1.5 uM: concentration that results in 150% activation of SIRT1. An excerpt:
A mass spectrometry based assay was used to identify modulators of SIRTI activity. The mass spectrometry based assay utilizes a peptide having 20 amino acid residues as follows: Ac-EE-K(biotin)-GQSTSSHSK(Ac)NleSTEG-K(5TMR)-EE-NH2 (SEQ ID NO: 1) wherein K(Ac) is an acetylated lysine residue and Nle is a norleucine. The peptide is labeled with the fluorophore 5TMR (excitation 540 nrnIemission 580 nm) at the C-terminus. The sequence of the peptide substrate is based on p53 with several modifications. In addition, the methionine residue naturally present in the sequence was replaced with the norleucine because the methionine may be susceptible to oxidation during synthesis and purification.
The mass spectrometry assay is conducted as follows: 0.5 J-1M peptide substrate and 120 μM βNAD^+ is incubated with 10 nM SIRT1 for 25 minutes at 25° C. in a reaction buffer (50 mM Tris-acetate pH 8, 137 mM NaCl, 2.7 mM KCl, 1 mM MgClz, 5 mM DTT, 0.05% BSA). Test compounds may be added to the reaction as described above. The SirTI gene is cloned into a T7-promoter containing vector and transformed into BL21 (DE3). After the 25 minute incubation with SIRT1, 10 μL of 10% formic acid is added to stop the reaction. Reactions are sealed and frozen for later mass spec analysis. Determination of the mass of the substrate peptide allows for precise determination of the degree of acetylation (i.e. starting material) as compared to deacetylated peptide (product).
A control for inhibition of sirtuin activity is conducted by adding 1 μL of 500 mM nicotinamide as a negative control at the start of the reaction (e.g., permits determination of maximum sirtuin inhibition). A control for activation of sirtuin activity is conducted using 10 nM of sirtuin protein, with 1 μL of DMSO in place of compound, to determine the amount of deacetylation of the substrate at a given timepoint within the linear range of the assay. This timepoint is the same as that used for test compounds and, within the linear range, the endpoint represents a change in velocity.
For the above assay, SIRTI protein was expressed and purified as follows. The SirT1 gene was cloned into a T7-promoter containing vector and transformed into BL21(DE3). The protein was expressed by induction with 1 mM IPTG as an N-terminal His-tag fusion protein at 18° C. overnight and harvested at 30,000×g. Cells were lysed with lysozyme in lysis buffer (50 mM Tris-HCl, 2 mM Tris[2-carboxyethyl]phosphine (TCEP), 10 μM ZnCl2, 200 mM NaCl) and further treated with sonication for 10 min for complete lysis. The protein was purified over a Ni-NTA column (Amersham) and fractions containing pure protein were pooled, concentrated and run over a sizing column (Sephadex S200 26/60 global). The peak containing soluble protein was collected and run on an Ion-exchange column (MonoQ). Gradient elution (200 mM-500 mM NaCl) yielded pure 20 protein. This protein was concentrated and dialyzed against dialysis buffer (20 mM TrisHCl, 2 mM TCEP) overnight. The protein was aliquoted and frozen at −80° C. until further use.
Sirtuin modulating compounds that activated SIRT1 were identified using the assay described above and are shown below in Table 4. The EC1.5 values represent the concentration of test compounds that result in 150% activation of SIRT1. The EC1.5 values for the activating compounds are represented by A (EC1.5≦1 μM), B (EC1.5>1 μM). The percent maximum fold activation is represented by A (Fold activation ≧200%) or B (Fold Activation <200%).

In test [2] the target is T1, SIRT1. The experiment in a line: Mass spectroscopic kinetic assay of SIRT1-catalyzed deacetylation of 20mer peptides. As to conditions: for Effect on the deacetylation of des(biotin,TAMRA)-peptide: substrate des(biotin,TAMRA)-peptide; for RVmax for activation of the deacetylation of desTAMRA-peptide / EC50: substrate desTAMRA-peptide, fit to eq (1); for EC50: read-out: EC50 for activation of the deacetylation of desTAMRA-peptide; for Ki,app for inhibition of the deacetylation of p53-20 mer / Ki: substrate p53-20 mer, RV=1/(1+([X]o/Ki,app)); for Ki: read-out: Ki,app for inhibition of the deacetylation of p53-20 mer. On the procedure:
Bovine glutamate dehydrogenase (GDH), α-ketoglutarate, NADH and NAD^+ were from Sigma Chemical Company. […] The nicotinamidase PNC1 was prepared as described by Denu and colleagues (Smith et al. (2009) Anal Biochem 394, 101-109). Our collection of approximately 5,000 SIRT1 activators was screened using the BioTrove mass spectrometry system, as previously described (Milne et al. (2007) Nature 450, 712-716). […] Compounds were present at 10 μM, and the assays were conducted in a pH 7.4 buffer containing 150 mM Tris, 5 mM DTT, 1% DMSO, and 0.025% BSA. To determine the interaction of STACs with SIRT1 two kinetic methods were employed. […] (2007) Nature 450, 712-716). The other, used with peptides of general structure […], used a continuous, enzyme-coupled method reported previously (Smith et al. (2009) Anal Biochem 394, 101-109), in which the SRT1 product nicotinamide is first converted into nicotinic acid and ammonia by the action of PNC1, and the ammonia then used by GDH to convert α-ketoglutarate into glutamate. This reaction occurs with oxidation of NADH to NAD^+ which is accompanied by a change in absorbance at 340 nm (Δε340=-6,200 M^-1 cm^-1). Activator titrations were plotted as relative velocity (i.e., the ratio of vx, velocity in the presence of activator X, to vo, velocity in the absence of activator) vs. [X]o, initial concentration of activator, and fit by nonlinear least-squares to the mechanism-independent expression for enzyme activation of […] the maximum relative velocity (i.e., vx/vo at infinite [X]o) and EC50 is the activator concentration at which vx/vo=(RVmax-1)/2. EC50 is a function of the kinetic mechanisms of both catalysis and activation, and the concentrations of substrates.

The target of test [3] is T1, SIRT1. In words: Steady-state kinetic parameters for SIRT1 substrates (PNC1-GDH-coupled assay). Also noted: kc/K1: unit not given here. Particulars: 25° C., pH 7.5, [NAD+]o = 2 mM, [SIRT1]o 50-1,000 nM. On the procedure:
All peptides were prepared by BioPeptide (San Diego, Calif.) and shown to be at least 95% pure by analytical HPLC analysis. Bovine glutamate dehydrogenase (GDH), α-ketoglutarate, NADH and NAD^+ were from Sigma Chemical Company. Full-length, human SIRT1 and the truncated version used for biophysical studies SIRT1(183-664) were prepared as described previously, and shown to have equivalent kinetic properties (Milne et al. (2007) Nature 450, 712-716). The nicotinamidase PNC1 was prepared as described by Denu and colleagues (Smith et al. (2009) Anal Biochem 394, 101-109).
To determine the interaction of STACs with SIRT1 two kinetic methods were employed. One, which was used for TAMRA-peptide, desTAMRA-peptide, des(biotin,TAMRA)-peptide, and p53-20 mer, used a previously described mass spectroscopic method for detection of peptide reaction products (Milne et al. (2007) Nature 450, 712-716). The other, used with peptides of general structure Ac-Arg-His-Lys-Lys^Ac-X, used a continuous, enzyme-coupled method reported previously (Smith et al. (2009) Anal Biochem 394, 101-109), in which the SRT1 product nicotinamide is first converted into nicotinic acid and ammonia by the action of PNC1, and the ammonia then used by GDH to convert α-ketoglutarate into glutamate. This reaction occurs with oxidation of NADH to NAD^+ which is accompanied by a change in absorbance at 340 nm (Δε340=−6,200 M^−1 cm^−1).
The kinetic experiments used to characterize activators were run on a Perkin Elmer Lambda 25 spectrophotometer equipped with a water-jacketed, eight-cell changer maintained at 25° C. In a typical kinetic experiment, all components of the reaction solution except SIRT1 were added to a 1 mL cuvette and allowed to reach thermal equilibrium. Final concentrations of the coupling system components were: 1 μM PNC1, 0.23 mM NADH, 3.4 mM α-ketoglutarate, and 20 U/mL bovine GDH. This solution also contained peptide substrate, NAD^.0., and activator, at concentrations indicated in the text. The final DMSO concentration was kept constant at 1%, and the buffer used in these experiments was 50 mM HEPES, 150 mM NaCl, pH 7.5. While the system was reaching thermal equilibrium, the absorbance was monitored to provide an accurate estimate of the background rate, which was subtracted from the reaction rate after the addition of SIRT1.
The parameters reported in this table were all determined using the PNC1-GDH-coupled assay. Kinetic parameters for the four 20 mers were also estimated using the mass spectroscopy-based assay first described by Milne et al. ((2007) Nature 450, 712-716) and agree with those reported in Table 3.

In the case of `CC(C)Cc1nc(NC2CCNCC2)cc(C(=O)Nc2ccccc2-c2nc3cc(COC4CCNCC4)cnc3s2)n1` [Compound 11, 2-isobutyl-6-(piperidin-4-ylamino)-N-(2-(6-((piperidin-4-yloxy)methyl)thiazolo[5,4-b]pyridin-2-yl)phenyl)pyrimidine-4-carboxamide], on SIRT1 [1], the Emax was at least 200% and the “EC1.5 uM” value is “A (EC1.5≦1 μM)”. On SIRT1 [2], the “Effect on the deacetylation of des(biotin,TAMRA)-peptide” value was “none activate”; the “RVmax for activation of the deacetylation of desTAMRA-peptide” value (shortened to “RVmax for activation”) was about 2.3; the EC50 is ~2000 nM and 2200 nM; the “Ki,app for inhibition of the deacetylation of p53-20 mer” value was “inhibit”. The Ki at SIRT1 [2] was found to be 10 ± 1 µM. Also, the “RVmax for activation” value at SIRT1 [2] (listed as 23) is listed as 2.8±0.2.

As for `CCCCc1nc(NCCNC)cc(C(=O)Nc2ccccc2-c2nc3cc(COC4CCNCC4)cnc3s2)n1` [Compound 12, 2-butyl-6-(2-(methylamino)ethylamino)-N-(2-(6-((piperidin-4-yloxy)methyl)thiazolo[5,4-b]pyridin-2-yl)phenyl)pyrimidine-4-carboxamide], at SIRT1 [1], the Emax was at least 200% and the “EC1.5 uM” value is recorded as “A (EC1.5≦1 μM)”. Also, on SIRT1 [2], the “Effect on the deacetylation of des(biotin,TAMRA)-peptide” value is “none activate”; the “RVmax for activation” value is recorded as about 2.3; the EC50 was ~2000 nM and 1500 nM; the “Ki,app for inhibition of the deacetylation of p53-20 mer” value is given as “inhibit”. Also, the Ki at SIRT1 [2] is 9 ± 3 µM. Moreover, at SIRT1 [2] (listed as 24), the “RVmax for activation” value is 2.1 ± 0.1.

For `CC(=O)NCCCC[C@H](NC(=O)[C@H](CCCCN)NC(=O)[C@H](Cc1c[nH]cn1)NC(=O)[C@H](CCCNC(=N)N)NC(C)=O)C(N)=O` [RHKK^Ac, Ac-Arg-His-Lys-Lys^Ac-NH2] (Ac-RHKK(Ac)-NH2), at SIRT1 [3], the kc was found to be 0.14 s⁻¹ and the kc/K1 was found to be 6.0.

Take `CC(=O)NCCCC[C@H](NC(=O)[C@H](CCCCN)NC(=O)[C@H](Cc1c[nH]cn1)NC(=O)[C@H](CCCNC(=N)N)NC(C)=O)C(=O)Nc1ccc2c(C)cc(=O)oc2c1` [RHKK^Ac-AMC, Ac-Arg-His-Lys-Lys^Ac-AMC] (Ac-RHKK(Ac)-{AMC}): on SIRT1 [3], the kc turned out to be 0.091 s⁻¹ and the kc/K1 stood at 0.8.

As for `CC(=O)NCCCC[C@H](NC(=O)[C@H](CCCCN)NC(=O)[C@H](Cc1c[nH]cn1)NC(=O)[C@H](CCCNC(=N)N)NC(C)=O)C(=O)N[C@@H](C)C(N)=O` [RHKK^AcA, Ac-Arg-His-Lys-Lys^Ac-Ala] (Ac-RHKK(Ac)A-NH2), on SIRT1 [3], the kc came to 0.15 s⁻¹ and the kc/K1 is recorded as 12.

At SIRT1 [3], `CC(=O)NCCCC[C@H](NC(=O)[C@H](CCCCN)NC(=O)[C@H](Cc1c[nH]cn1)NC(=O)[C@H](CCCNC(=N)N)NC(C)=O)C(=O)N[C@@H](Cc1ccccc1)C(N)=O` [RHKK^AcF, Ac-Arg-His-Lys-Lys^Ac-Phe-NH2] (Ac-RHKK(Ac)F-NH2) yielded a kc of 0.16 s⁻¹ and a kc/K1 of 23.
